Patent US20160243277A1, “FAST CURING POROUS MATERIALS AND CONTROL THEREOF” (priority 2013, published 2016)

How the values were obtained:
[1] = system: human mesenchymal stem cells (hMSCs); experiment: Macromer extract dilution cytocompatibility test (modified ISO 10993-5, Live/Dead); conditions: undiluted (1X) extract from 10 minute media incubation with macromer, 24 hour culture
Method: Bone marrow-derived human mesenchymal stem cells (hMSCs) were obtained as Passage 1 in a cryovial from the Center for the Preparation and Distribution of Adult Stem Cells. Cells were cultured in growth media containing 16.5% fetal bovine serum (Atlanta Biologicals), 1% L-glutamine (Life Technologies) and Minimum Essential Media α (MEM α, Life Technologies) to about 80% confluency and utilized at Passages 5 and 6. Cells were trypsinized with 0.25% Trypsin-EDTA (Life Technologies) and seeded at a density of about 40,000 cells/cm^2 in a 96 well plate and allowed to adhere for about 24 hours. On the following day, about 100 μl of each macromer was incubated in about 300 μl growth media supplemented with 1 vol. % penicillin-streptomycin (Life Technologies) in a 48 well plate to mimic the ratio of organic to aqueous phase in the HIPE. After about 10 minute incubation at about 37° C., 5% CO2, the supernatant above the macromers was aspirated and diluted to about 10× and about 100× solutions. […] Extracted and diluted media (1, 10, and 100×) was then added to cells and cultured for an additional time, generally about 24 hours. Viability was assessed utilizing the Live/Dead® assay kit (registration with Molecular Probes Corporation, Eugene, Oreg.). The analysis used a plate reader (Tecan Infinite M200Pro) with excitation/emission wavelengths of 485/528 and 528/620 for calcein-AM and ethidium homodimer-1 dyes, respectively. Viability was normalized to cells on tissue culture polystyrene.

[2] = previously described PFDMA macromer; cited from earlier work

| Molecule | hMSC viability after exposure to extract media [1] | Macromer viscosity [2] |
| --- | --- | --- |
| C=C(C)C(=O)OCCCCOC(=O)C(=C)C [BDMA, butane diol dimethacrylate] | less |  |
| C=C(C)C(=O)OCCOC(=O)C(=C)C [EGDMA, ethylene glycol dimethacrylate] | less |  |
| propylene fumarate dimethacrylate [PFDMA] | > 80% | about 125 cP |
